Among the data in publication PMC6934184, “Selective DNA-PKcs inhibition extends the therapeutic index of localized radiotherapy and chemotherapy” (The Journal of Clinical Investigation, 2019) are inhibition values, retold here.

This test addresses T1, NLK (Homo sapiens, UniProt Q9UBE8).
T1 construct: purchased Thermo Fisher Scientific (Life Technologies) SelectScreen
The test is described as follows: SelectScreen LanthaScreen. In kind it is binding. The settings on record: read-out: % displacement. In short, it runs like this: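 NU5455 was profiled across the SelectScreen Broad panel of kinase activity and binding assays. Z'LYTE reactions such as CSF1R ran at apparent Km ATP, while the Adapta CAMK1 assay used ATP listed as 10. Values are given as percent.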
(TR-FRET usually uses a lanthanide donor and a delayed reading to cut background.)

T1 sequence (Q9UBE8 whole entry): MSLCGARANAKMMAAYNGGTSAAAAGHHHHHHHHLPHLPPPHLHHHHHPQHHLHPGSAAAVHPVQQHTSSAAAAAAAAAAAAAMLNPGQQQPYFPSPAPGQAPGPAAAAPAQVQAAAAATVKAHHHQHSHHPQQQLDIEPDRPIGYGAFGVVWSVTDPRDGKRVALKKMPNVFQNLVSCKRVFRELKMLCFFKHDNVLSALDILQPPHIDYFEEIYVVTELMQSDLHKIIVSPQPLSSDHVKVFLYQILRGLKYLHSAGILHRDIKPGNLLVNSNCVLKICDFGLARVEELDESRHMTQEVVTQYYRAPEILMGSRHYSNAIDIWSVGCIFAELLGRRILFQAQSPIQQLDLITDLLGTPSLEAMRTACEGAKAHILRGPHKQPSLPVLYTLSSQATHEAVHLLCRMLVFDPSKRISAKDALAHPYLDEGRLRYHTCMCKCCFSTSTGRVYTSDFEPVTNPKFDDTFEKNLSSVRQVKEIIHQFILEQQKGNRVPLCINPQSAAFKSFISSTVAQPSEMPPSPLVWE

Regarding `CN(C(=O)CN1CCOCC1)c1ccc2sc3c(-c4cccc5c(=O)cc(N6CC7CCC(C6)O7)oc45)cccc3c2c1` [NU5455], the inhibition at 1 µM turned out to be 4.7%.
